Results from patent US9624161B2 (priority 2009, dated 2017).
“And” between values parts separate entries of the source, which are not always exact repeats. Equal entries are not always repeated. “Also recorded” adds a separate entry of the source.

Tests used:
rat ER-α = rat ER-α (Rattus norvegicus, UniProt P06211)
[1] = system: men with castration resistant prostate cancer (CRPC); experiment: Study 3: Compound IV 2000 mg daily in men with castration resistant prostate cancer maintained on ADT; format: in vivo, human; settings: for Percentage of treated patients already on ADT (ITT population) below the free T cutoff of 0.5 pg/ml: Study 3, CRPC
Procedure: Men with CRPC (n=9) received 2000 mg Compound IV daily. The primary endpoint of the study was the proportion of subjects with a greater than or equal to 50% reduction in prostate specific antigen (PSA) from Day 1. Secondary endpoints included serum free T and SHBG which together with PSA were assessed at days 1, 15, 30, 60 and 90. Serum concentrations of total T, free T, SHBG and PSA were determined at baseline and during treatment.
A study (Study 3) was conducted to assess the effects of Compound IV on serum PSA progression in men with castration resistant prostate cancer who have been effectively treated with ADT and at the time of enrollment into this study have shown serum PSA progression. This study consisted of one dose arm with 9 subjects.
The subjects were 12 male subjects over age 18 years with castration resistant prostate cancer, who were being treated with androgen deprivation therapy (chemical or surgical castration) for at least 6 months, that have serum PSA >2 ng/mL or […] a 25% increase above the nadir after the initiation of androgen deprivation therapy (ADT) at study enrollment. The subjects were maintained on androgen deprivation therapy throughout the study.
The dose selected for the study was 2000 mg Compound IV. Four Compound IV tablets, 500 mg (2000 mg dose) were orally administered daily. […] Subjects received 2000 mg of Compound IV daily by mouth until study termination. Dosing was to be continued until their serum PSA had increased at least 25% and 2 ng/mL from the nadir at two successive sample times (approximately 30 days apart) after initiation of treatment with Compound IV. The prostate cancer working group (PCWG) definition of PSA progression was used (serum PSA has increased at least 25% and 2 ng/mL above the nadir after initiation of treatment with Compound IV on two successive sample times).
Assessments of serum PSA concentration were made at baseline and on Days 15, 30, and 60 (only 1 patient made it this far before study was terminated).
The proportion of subjects with a 50% decline from baseline in serum PSA (confirmed by a second PSA assessment at least one week later).

[2] = biological target: T1, progesterone receptor (PR) (Rattus norvegicus, UniProt Q63449); experiment: Nuclear receptor cross-reactivity transcriptional activation assay; format: cell-based; settings: agonist and antagonist modes
T1 construct: expressed in transfected cells
Text: (§1) Compound IV was screened for cross-reactivity against rat isoforms of glucocorticoid receptor (GR), mineralocorticoids receptor (MR), progesterone receptor (PR), androgen receptor (AR) and human isoforms of farnesoid X receptor (FXR), liver X receptor (LXR), peroxisome proliferator-activated receptors (PPAR-α and PPAR-γ), and retinoid X receptor (RXR-α) in both agonist and antagonist modes in transcriptional activation assays.

[3] = biological target: T2, farnesoid X receptor (FXR) (Homo sapiens, UniProt Q96RI1); experiment: as above; format: cell-based; settings: agonist and antagonist modes
T2 construct: expressed in transfected cells
Text: as §1

[4] = biological target: T3, retinoid X receptor (RXR-α) (Homo sapiens, UniProt P19793); experiment: as above; format: cell-based; settings: agonist and antagonist modes
T3 construct: expressed in transfected cells
Text: as §1

[5] = biological target: T4, glucocorticoid receptor (GR) (Rattus norvegicus, UniProt P06536); experiment: as above; format: cell-based
T4 construct: expressed in transfected cells
T4 sequence (P06536 1-795): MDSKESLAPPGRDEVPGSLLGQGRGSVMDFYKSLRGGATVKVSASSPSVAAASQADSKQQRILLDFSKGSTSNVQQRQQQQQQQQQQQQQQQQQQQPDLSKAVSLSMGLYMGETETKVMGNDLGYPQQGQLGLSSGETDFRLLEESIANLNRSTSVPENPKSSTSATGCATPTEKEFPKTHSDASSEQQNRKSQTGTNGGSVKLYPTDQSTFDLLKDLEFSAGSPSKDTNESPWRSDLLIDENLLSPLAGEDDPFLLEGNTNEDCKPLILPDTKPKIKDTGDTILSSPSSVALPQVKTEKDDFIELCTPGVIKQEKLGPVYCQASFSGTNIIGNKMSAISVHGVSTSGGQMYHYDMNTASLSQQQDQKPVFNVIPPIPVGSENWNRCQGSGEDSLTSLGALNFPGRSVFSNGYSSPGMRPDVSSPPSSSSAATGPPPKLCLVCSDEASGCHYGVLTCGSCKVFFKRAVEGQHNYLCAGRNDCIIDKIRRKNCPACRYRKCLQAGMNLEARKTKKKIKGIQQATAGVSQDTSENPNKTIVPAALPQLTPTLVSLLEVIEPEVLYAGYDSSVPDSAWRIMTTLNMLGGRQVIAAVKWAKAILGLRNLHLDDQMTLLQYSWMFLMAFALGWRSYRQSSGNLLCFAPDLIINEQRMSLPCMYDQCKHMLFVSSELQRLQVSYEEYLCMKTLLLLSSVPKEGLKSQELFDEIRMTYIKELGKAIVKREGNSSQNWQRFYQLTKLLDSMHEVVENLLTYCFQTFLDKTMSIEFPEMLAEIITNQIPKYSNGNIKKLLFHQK
Text: as §1

androgen receptor (AR) = biological target: T5, androgen receptor (AR) (Rattus norvegicus, UniProt P15207); experiment: as above; format: cell-based
T5 construct: expressed in transfected cells
Text: as §1

PPAR-α = biological target: T6, PPAR-α (Homo sapiens, UniProt Q07869); experiment: as above; format: cell-based; settings: agonist and antagonist modes
T6 construct: expressed in transfected cells
Text: as §1

PPAR-γ = biological target: T7, PPAR-γ (Homo sapiens, UniProt P37231); experiment: as above; format: cell-based; settings: agonist and antagonist modes
T7 construct: expressed in transfected cells
Text: as §1

[6] = biological target: T8, mineralocorticoids receptor (MR) (Rattus norvegicus, UniProt P22199); experiment: as above; format: cell-based; settings: agonist and antagonist modes
T8 construct: expressed in transfected cells
Text: as §1

[7] = system: sexually mature male cynomolgus monkeys; experiment: 39-week oral pharmacology and toxicology study in male cynomolgus monkeys (13-week interim); format: in vivo, cynomolgus monkey
[8] = system: prostate epithelial cancer cells; experiment: Proliferation of prostate epithelial cancer cells in vitro; format: cell-based
liver X receptor (LXR) = experiment: Nuclear receptor cross-reactivity transcriptional activation assay; format: cell-based, human; settings: agonist and antagonist modes
Text: as §1

[9] = system: human peripheral blood lymphocytes; experiment: Chromosomal aberrations in human peripheral blood lymphocytes in vitro; format: cell-based; settings: concentrations up to 200 μM
Text: Compound IV was well-tolerated by rats and dogs after single and repeated oral administration (up to 28 days).

T5 sequence (P15207 whole entry S389L): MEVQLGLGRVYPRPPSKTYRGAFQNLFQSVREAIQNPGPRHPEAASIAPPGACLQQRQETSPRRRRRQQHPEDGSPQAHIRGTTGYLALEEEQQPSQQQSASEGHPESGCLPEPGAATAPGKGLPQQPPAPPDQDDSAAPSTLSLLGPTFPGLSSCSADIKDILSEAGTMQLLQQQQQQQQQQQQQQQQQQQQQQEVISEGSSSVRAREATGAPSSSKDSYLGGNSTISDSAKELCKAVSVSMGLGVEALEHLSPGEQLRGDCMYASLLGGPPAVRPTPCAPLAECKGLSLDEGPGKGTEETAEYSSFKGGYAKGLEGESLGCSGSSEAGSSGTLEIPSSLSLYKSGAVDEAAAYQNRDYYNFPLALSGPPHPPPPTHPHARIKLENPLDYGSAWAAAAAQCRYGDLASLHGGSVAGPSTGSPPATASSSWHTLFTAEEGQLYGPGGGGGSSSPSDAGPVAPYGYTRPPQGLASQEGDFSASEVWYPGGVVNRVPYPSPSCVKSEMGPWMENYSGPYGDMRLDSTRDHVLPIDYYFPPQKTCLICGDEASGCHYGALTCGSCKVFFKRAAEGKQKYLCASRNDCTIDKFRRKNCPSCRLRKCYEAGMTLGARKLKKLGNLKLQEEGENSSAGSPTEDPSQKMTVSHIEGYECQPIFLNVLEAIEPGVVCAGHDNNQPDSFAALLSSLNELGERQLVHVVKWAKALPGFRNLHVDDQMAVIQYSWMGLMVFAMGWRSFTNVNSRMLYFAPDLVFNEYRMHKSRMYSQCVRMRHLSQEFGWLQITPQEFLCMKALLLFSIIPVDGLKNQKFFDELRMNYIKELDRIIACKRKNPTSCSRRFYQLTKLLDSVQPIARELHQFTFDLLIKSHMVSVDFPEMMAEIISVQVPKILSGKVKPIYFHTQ
rat ER-α, sequence (P06211 whole entry): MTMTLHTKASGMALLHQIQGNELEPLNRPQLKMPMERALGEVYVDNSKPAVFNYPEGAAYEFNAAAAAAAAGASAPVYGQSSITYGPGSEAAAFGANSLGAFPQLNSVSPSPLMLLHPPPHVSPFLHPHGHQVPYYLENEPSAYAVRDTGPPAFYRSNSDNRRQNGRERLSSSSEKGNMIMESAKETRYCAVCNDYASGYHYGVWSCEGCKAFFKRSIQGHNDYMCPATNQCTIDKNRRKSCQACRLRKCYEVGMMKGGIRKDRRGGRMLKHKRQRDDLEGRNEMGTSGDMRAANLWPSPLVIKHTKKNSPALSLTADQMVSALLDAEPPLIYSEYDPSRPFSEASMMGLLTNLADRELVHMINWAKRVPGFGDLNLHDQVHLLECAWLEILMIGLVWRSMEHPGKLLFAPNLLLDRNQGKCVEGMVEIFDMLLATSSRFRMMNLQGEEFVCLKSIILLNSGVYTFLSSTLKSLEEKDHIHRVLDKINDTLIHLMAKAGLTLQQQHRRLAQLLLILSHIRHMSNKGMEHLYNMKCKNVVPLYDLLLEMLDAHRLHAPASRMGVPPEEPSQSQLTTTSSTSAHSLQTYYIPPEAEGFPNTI
T8 sequence (P22199 whole entry): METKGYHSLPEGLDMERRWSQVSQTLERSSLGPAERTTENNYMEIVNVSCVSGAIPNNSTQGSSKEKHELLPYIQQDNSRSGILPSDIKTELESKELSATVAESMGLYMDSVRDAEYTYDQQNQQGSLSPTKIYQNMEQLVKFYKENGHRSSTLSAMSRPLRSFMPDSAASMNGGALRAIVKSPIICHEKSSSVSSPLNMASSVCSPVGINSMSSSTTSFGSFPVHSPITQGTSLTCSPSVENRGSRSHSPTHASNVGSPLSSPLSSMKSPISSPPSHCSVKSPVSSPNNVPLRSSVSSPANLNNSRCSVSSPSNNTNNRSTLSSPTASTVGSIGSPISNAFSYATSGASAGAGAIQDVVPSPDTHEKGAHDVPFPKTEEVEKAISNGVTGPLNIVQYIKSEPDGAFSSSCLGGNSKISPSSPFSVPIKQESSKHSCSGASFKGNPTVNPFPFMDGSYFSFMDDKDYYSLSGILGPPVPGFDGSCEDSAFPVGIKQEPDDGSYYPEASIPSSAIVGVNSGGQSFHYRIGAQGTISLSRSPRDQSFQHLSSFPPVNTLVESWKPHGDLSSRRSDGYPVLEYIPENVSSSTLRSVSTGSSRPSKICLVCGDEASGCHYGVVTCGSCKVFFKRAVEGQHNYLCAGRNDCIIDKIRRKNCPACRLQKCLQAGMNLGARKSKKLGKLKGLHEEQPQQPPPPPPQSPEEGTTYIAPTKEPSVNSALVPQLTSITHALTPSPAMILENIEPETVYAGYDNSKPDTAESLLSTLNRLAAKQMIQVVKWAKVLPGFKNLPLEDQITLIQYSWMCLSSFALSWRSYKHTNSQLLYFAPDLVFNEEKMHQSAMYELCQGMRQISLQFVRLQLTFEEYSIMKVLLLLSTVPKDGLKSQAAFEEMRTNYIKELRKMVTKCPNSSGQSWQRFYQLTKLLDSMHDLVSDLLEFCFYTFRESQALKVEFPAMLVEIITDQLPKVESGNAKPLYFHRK
T3 sequence (P19793 whole entry): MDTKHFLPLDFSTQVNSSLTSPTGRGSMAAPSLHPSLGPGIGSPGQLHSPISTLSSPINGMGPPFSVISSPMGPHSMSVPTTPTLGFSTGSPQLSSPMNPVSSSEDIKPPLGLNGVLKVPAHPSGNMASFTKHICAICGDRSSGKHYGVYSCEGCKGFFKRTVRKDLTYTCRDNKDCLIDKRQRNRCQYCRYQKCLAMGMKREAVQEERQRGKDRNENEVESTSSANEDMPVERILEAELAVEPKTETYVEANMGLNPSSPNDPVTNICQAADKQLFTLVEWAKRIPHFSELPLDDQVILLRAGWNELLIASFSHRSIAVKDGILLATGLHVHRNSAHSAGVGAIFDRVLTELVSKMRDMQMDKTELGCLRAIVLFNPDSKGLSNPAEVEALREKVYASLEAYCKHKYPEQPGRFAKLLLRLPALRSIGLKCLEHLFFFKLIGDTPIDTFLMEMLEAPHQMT
T1 sequence (Q63449 whole entry): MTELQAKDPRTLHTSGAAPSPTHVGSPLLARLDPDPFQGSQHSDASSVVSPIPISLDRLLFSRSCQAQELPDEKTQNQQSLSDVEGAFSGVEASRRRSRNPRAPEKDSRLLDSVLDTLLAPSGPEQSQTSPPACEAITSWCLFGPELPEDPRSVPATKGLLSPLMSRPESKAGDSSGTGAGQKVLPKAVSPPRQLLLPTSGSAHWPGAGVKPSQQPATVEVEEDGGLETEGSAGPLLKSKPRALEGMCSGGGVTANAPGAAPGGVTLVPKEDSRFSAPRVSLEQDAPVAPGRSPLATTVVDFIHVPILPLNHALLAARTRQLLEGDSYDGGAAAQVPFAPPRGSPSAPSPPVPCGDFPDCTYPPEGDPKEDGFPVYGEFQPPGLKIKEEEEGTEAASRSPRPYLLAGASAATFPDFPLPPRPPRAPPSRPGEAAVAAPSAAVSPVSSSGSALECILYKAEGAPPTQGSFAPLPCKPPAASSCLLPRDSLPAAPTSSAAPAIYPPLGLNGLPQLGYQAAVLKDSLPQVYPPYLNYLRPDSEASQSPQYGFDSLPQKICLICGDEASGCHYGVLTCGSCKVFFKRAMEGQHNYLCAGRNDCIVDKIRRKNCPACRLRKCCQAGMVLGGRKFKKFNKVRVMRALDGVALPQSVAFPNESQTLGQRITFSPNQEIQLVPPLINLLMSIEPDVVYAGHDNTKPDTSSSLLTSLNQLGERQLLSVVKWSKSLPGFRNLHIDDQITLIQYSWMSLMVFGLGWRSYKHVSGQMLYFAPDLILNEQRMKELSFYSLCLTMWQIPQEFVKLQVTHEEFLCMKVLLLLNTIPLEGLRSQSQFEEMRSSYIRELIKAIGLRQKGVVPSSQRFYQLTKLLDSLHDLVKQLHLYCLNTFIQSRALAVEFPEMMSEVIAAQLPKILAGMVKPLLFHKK
T6 sequence (Q07869 whole entry): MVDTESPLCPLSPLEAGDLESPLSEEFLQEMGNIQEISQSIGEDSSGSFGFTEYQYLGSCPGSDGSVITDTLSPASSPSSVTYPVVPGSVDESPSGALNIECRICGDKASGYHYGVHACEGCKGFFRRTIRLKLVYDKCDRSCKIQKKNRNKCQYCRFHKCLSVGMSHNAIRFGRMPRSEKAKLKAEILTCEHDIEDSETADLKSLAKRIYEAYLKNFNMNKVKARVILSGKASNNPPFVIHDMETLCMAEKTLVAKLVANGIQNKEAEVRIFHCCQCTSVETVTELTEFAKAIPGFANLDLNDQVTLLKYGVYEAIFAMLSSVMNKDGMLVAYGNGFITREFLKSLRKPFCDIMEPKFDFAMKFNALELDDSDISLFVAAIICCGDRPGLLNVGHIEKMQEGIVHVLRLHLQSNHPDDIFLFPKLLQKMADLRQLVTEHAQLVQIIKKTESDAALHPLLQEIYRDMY
T2 sequence (Q96RI1 whole entry): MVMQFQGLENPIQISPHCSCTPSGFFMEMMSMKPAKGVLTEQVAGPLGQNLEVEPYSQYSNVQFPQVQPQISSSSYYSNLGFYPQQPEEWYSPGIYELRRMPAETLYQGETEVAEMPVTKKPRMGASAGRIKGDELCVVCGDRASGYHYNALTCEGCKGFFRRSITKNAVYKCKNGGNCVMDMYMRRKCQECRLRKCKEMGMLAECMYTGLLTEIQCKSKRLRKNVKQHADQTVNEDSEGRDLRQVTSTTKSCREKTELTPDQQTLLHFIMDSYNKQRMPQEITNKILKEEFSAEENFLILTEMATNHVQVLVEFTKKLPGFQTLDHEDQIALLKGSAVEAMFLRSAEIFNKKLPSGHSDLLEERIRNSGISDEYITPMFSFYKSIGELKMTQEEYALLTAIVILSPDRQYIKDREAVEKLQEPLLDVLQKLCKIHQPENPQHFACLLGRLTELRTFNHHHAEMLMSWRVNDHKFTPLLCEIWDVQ

O=C(c1ccc(O)c(F)c1)N(c1ccc(O)cc1)c1ccc(F)cc1 [Compound IV, 3-fluoro-N-(4-fluorophenyl)-4-hydroxy-N-(4-hydroxyphenyl)benzamide]
Antagonist effects on estradiol-stimulated transcriptional activation (rat ER-α; estradiol 1 nM, Compound IV up to 10 μM): no antagonist effects were observed
Relative selectivity in transactivation potency for ERα over ERβ (rat ER-α; normalized to estradiol values): 16 fold
Free T reductions and PSA decreases from baseline ([1]; 15 days, men maintained on ADT with LHRH agonists alone): in all of the men
Effect on serum total T levels ([1]; CRPC patients on ADT): did not further reduce
Reduction in % FreeT ([1]; Day 15): greater than 50%
Percentage of treated patients already on ADT (ITT population) below the free T cutoff of 0.5 pg/ml ([1]; 15 days on therapy): 85.7%
Percentage of treated patients already on ADT (ITT population) below the free T cutoff of 0.5 pg/ml ([1]; 30 days on therapy): 66.7%
Percentage of treated patients already on ADT (ITT population) below the free T cutoff of 0.5 pg/ml ([1]; 60 days on therapy): 100%
Patients with greater than 50% reduction in PSA ([1]; after two weeks): 3 of 7
Men that reached free T below 0.5 pg/mL ([1]; day 15): 85.7%
Men that reached free T below 0.5 pg/mL ([1]; day 30): 66.7%
Men that reached free T below 0.5 pg/mL ([1]; day 60): 100%
Subjects with a reduction in serum PSA from baseline to Day 15 ([1]; seven evaluable subjects): All seven
Subjects with >50% reduction in serum PSA ([1]; subjects with at least 30 days of exposure): all three and 2 of 3
Agonist or antagonist activity at PR [2]: did not display any agonist or antagonist activity
Agonist or antagonist activity at FXR [3]: did not display any agonist or antagonist activity
Agonist or antagonist activity at RXR-α [4]: did not display any agonist or antagonist activity
Cross-reaction with glucocorticoid receptor (GR) ([5]; FIG. 12A): does not; also recorded: did not
Agonist or antagonist activity at GR ([5]; agonist and antagonist modes): did not display any agonist or antagonist activity
Cross-reaction with androgen receptor (AR) (androgen receptor (AR); FIG. 12B): does not; also recorded: did not
Agonist or antagonist activity at AR (androgen receptor (AR); agonist and antagonist modes): did not display any agonist or antagonist activity
Agonist or antagonist activity at PPAR-α (PPAR-α): did not display any agonist or antagonist activity
Agonist or antagonist activity at PPAR-γ (PPAR-γ): did not display any agonist or antagonist activity
Agonist or antagonist activity at MR [6]: did not display any agonist or antagonist activity
Monkeys with testosterone below the limit of quantification ([7]; 100 mg/kg/day oral, after 90 days, Group 4): 6 of 10
Initial testosterone flare ([7]; any Compound IV dose, up to 100 mg/kg/day): not observed
Proliferation of prostate epithelial cancer cells [8]: does not increase proliferation; also recorded: did not increase proliferation
Agonist or antagonist activity at LXR (liver X receptor (LXR)): did not display any agonist or antagonist activity
Structural or numeric chromosomal aberrations [9]: did not induce
